Our source for the IC50 values is PubChem BioAssay AID644 (The Scripps Research Institute Molecular Screening Center, 2007).

What is called IC50 is the concentration that inhibits the measured activity by half.

Molecules are shown by their SMILES. Active and inactive are the calls of the source.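 How the source made its calls: active means IC50 at or below a set limit; inactive means IC50 above that limit.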

In this assay the target is Rho-associated protein kinase 2 (Homo sapiens) (UniProt O75116). The experiment in a line: ROCK2 kinase inhibitor potency, dose response, biochemical, Kinase-Glo luminescence, S6 peptide, 1536-well (AID 644). The settings on record: recombinant ROCK2, S6 peptide, Kinase-Glo ATP luminescence. (Kinase-Glo measures the ATP left after a reaction by luminescence.)
Sequence of Rho-associated protein kinase 2 (Homo sapiens) (O75116 whole entry, looked up): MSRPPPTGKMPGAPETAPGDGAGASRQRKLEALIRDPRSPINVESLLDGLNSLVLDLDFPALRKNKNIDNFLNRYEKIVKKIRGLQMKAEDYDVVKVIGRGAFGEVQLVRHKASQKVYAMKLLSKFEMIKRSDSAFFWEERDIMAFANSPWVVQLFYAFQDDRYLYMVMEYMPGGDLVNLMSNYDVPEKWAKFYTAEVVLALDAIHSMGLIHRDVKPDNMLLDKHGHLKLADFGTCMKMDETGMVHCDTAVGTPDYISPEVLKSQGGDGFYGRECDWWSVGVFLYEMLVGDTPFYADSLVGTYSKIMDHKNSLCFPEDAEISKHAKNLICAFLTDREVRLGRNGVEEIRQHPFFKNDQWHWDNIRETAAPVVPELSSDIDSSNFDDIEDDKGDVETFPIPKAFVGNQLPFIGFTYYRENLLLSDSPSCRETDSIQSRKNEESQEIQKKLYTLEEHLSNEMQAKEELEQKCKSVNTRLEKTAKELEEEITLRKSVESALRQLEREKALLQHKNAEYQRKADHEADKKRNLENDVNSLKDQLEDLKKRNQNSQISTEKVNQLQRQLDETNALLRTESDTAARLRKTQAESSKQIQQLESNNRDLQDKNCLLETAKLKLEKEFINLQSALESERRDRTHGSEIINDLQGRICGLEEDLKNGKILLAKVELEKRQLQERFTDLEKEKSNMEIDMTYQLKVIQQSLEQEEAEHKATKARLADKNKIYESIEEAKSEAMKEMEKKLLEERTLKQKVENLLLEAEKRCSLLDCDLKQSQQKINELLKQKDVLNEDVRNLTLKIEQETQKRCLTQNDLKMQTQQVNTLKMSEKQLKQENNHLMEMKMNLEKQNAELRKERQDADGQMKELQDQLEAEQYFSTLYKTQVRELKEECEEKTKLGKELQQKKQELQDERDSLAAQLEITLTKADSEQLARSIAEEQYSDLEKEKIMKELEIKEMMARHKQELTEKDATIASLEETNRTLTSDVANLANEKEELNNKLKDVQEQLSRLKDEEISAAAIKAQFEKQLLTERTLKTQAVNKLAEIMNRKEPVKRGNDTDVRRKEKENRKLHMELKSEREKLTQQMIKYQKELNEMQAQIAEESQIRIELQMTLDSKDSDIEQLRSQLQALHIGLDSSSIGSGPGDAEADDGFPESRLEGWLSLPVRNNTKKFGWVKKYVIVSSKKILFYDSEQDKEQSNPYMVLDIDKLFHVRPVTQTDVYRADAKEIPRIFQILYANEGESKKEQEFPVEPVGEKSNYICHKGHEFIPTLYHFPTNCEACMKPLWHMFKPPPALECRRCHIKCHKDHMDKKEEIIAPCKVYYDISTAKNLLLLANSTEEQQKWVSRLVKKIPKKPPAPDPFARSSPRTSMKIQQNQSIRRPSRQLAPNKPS
Take `CCOC(=O)C1=C(CSc2nc(-c3ccncc3)ccc2C#N)OC(N)=C(C#N)C1c1cccnc1` (stereo not drawn): the IC50 is > 19.9 µM (inactive).
In the case of `CN(C(=O)c1cccc(N2C(=O)C3CC=CCC3C2=O)c1)C1CCCCC1` (stereo not drawn), the IC50 is > 59.6 µM (inactive).
Under `COc1cc(N=Cc2c(O)[nH]c3ccccc23)cc(OC)c1OC` stands “inactive”; under `Cc1[nH]nc2c1C(c1ccc(-c3ccccc3C#N)o1)C(C#N)=C(N)O2` (stereo not drawn), > 19.9 µM (inactive); under `COC(=O)c1cccc2c1-c1ccccc1/C2=N/O`, > 19.9 µM (inactive).
Under `CC1=NN(c2ccccc2)C(=O)C1` stands > 59.6 µM (inactive); under `CN1/C(=N\O)c2cccc3cccc1c23`, > 19.9 µM (inactive).
Under `O/N=C/c1c[nH]c2ccccc12` stands 4.81 µM.
